{
  "source": "patent US4937232A",
  "about": "“Inhibition of protein kinase C by long-chain bases” (priority 1988, dated 1990)",
  "key": {"HL-60 cells": {"test_system": "HL-60 cells", "experiment": "PMA-induced adherence (attachment) of HL-60 cells", "assay_type": "cell-based, human", "settings": "for Adherent cells (%): 72 h; for IC50: Homo sapiens", "experimental": "Cells were centrifuged at 600 g for 3 min, and added at 1×10^5 cells per well in 12-well culture dishes. Medium, PMA, and long-chain bases (prepared as the 1:1 molar complex with fatty acid-free bovine serum albumin) at the indicated concentrations were added for a total volume of 2.0 ml. After the desired times, the cells in suspension were counted and checked for viability (trypan blue exclusion) with a hemacytometer. The attached cells were quantitated by measuring DNA content according to the method of West et al (Anal. Biochem., 147, 289-295, 1985) and by assaying for acid phosphatase according to the method of Schnyder (J. Exp. Med., 148, 434-445, 1978)."}, "[1]": {"test_system": "phorbol ester receptor of HL-60 cells (protein kinase C)", "experiment": "Competition for [3H]phorbol dibutyrate binding by HL-60 cells", "set-up": "species or system human", "settings": "12 nM [3H]phorbol dibutyrate, 1 h at 37°; read-out: 50% inhibition of [3H]phorbol dibutyrate binding", "experimental": "Competitive binding assays were conducted as described by Goodwin and Weinberg (J. Clin. Invest, 70, 699-706, 1982 and Ebling et al (ibid.). Approximately 1×10^6 cells/ml were incubated with 12 nM [^3 H]phorbol dibutyrate (8.3 Ci/mmol) and varying concentrations of sphinganine (1:1 with BSA) for 1 h at 37°. The cells were recovered on Millipore filters, washed, and counted. The data were corrected for nonspecific binding by subtracting the cpm obtained in the presence of 300 nM PMA."}, "protein kinase C": {"test_system": "protein kinase C", "experiment": "Triton X-100 mixed micellar assay for protein kinase C activity", "assay_type": "biochemical, rat", "settings": "for inhibition of protein kinase C (specificity): mixed micellar assay", "experimental": "Protein kinase C was partially purified from rat brain as described by Hanrun et al (J. Biol. Chem., 260, 10043, 1985), which is hereby incorporated by reference.\nProtein kinase C was assayed with Triton X-100 mixed micelles as described by Hanrun et al, (ibid.), Sphingosine was dried down with the lipid cofactors."}, "human neutrophils [2]": {"test_system": "human neutrophils", "experiment": "Oxygen consumption (oxidative burst) of human neutrophils", "assay_type": "cell-based", "settings": "for IC50: Homo sapiens, Neutrophil", "excerpt": "Human neutrophils were obtained by continuous flow leukapheresis from normal adults. Residual erythrocytes were removed by hypotonic lysis with a resulting purity of >95% neutrophils. Alternatively peripheral blood was obtained by phlebotomy and neutrophils were isolated by HESPAN (6% Hetastarch, 0.9% NaCl) sedimentaion of erythrocytes, centrifugation through lymphocyte separation medium (9.4% sodium diatrizoate, 6.2% Ficoll), and hypotonic lysis of residual erythrocytes. Isolated cells were resuspended in phosphate buffered saline (PBS)-glucose, containing 0.6 mM CaCl2, 2.6 mM KCl, 1.5 mM KH2 PO4, 0.5 mM MgCl2, 136 mM NaCl, 8 mM Na2 HPO4, 5.5 mM glucose.\nOxygen consumption was measured using a Clark-type electrode with YSI model 53 oxygen monitor. Assays were conducted at 37° C. with 6.5×10^6 cells per ml with a total volume of either 2.5 ml or 4 ml. Effectors were injected into the electrode chamber using a Hamilton syringe. Initial slopes after the addition of the stimuli were used for rate calculations. For activators with a lag prior to the onset of the oxidative burst, maximal rates following the lag were used."}, "[3]": {"experiment": "Neutrophil viability (Trypan Blue exclusion, LDH release)", "assay_type": "cell-based", "settings": "human, neutrophils, 50 μM sphinganine, 1.2×10^7 cells/ml", "experimental": "Cell viability was assessed by two criteria: Trypan Blue exclusion and release of the cytosolic enzyme, lactate dehydrogenase (LDH). LDH activity was monitored by following the oxidation of NADH at 340 nm. […] Trypan Blue exclusion was determined microscopically."}, "human neutrophils [4]": {"test_system": "human neutrophils", "experiment": "Phagocytosis of opsonized latex particles by neutrophils", "assay_type": "cell-based", "settings": "40 μM sphinganine, ± S.E.M.", "experimental": "Latex particles were opsonized by incubating at 37° C. 1 ml of particles with 0.2 ml of human serum plus 1 ml Tris buffer, pH 8.5. […] The reaction was terminated by the addition of 0.4 ml of ice-cold buffer containing 1 mM EDTA. […] Cells are sedimented, while excess beads remain at the ficoll-saline interface. The number of latex beads internalized per cell was determined by microscopic examination."}, "human neutrophils [5]": {"test_system": "human neutrophils", "experiment": "[32P]-phosphate incorporation into TCA-precipitable material of neutrophils", "assay_type": "cell-based", "experimental": "Neutrophils (1.4×10^8 cells) were preincubated in with 0.5 mCi Na2 H^32 PO4 in buffer containing […] NaCl, 5.56 mM glucose, 10 mM Hepes, and 0.33 mM CaCl2 for a total of 1 hr at 37° C. in a shaking waterbath. Excess unbound counts were removed by centrifugation and resuspension, repeated five times. The cells were then divided into 4 treatment groups (see RESULTS below) containing approximately 3.5×10^7 cells each. All groups were incubated at 37° C. in a shaking waterbath for the same total time. Some samples were incubated 10 min. with sphinganine (40 μM) prior to addition of 1 μM PMA (final concentration), with which they were incubated for an additional 15 min. The reaction was stopped by addition of an equal volume of boiling SDS dissociation buffer (9% SDS, 1% mercaptoethanol, 15% glycerol, 30 mM Tris, pH 7.8). The samples were run on a 12% SDS-polyacrylamide gel using the method of Rudolph and Krueger (Adv. Cyclic Nucleotide Res. 101, 107-133, 1979). The gels were dried using a Bio-Rad model 2400 Gel Slab Dryer. Autoradiography was performed on the dried gels using Kodak X-omat X-ray film and Dupont Cronex intensifying screens. The gels were exposed for 12 hrs at -70° C.\nAlternatively, neutrophils were preincubated as described above using 0.1 mCi of ^32 P labeled phosphate. The cells were broken by 5 min. of sonication using an Ultramet III waterbath sonicator, and 5% (final concentration) trichloroacetic acid was added to each sample. […] The precipitate was filtered and washed extensively using an Amicon filtration system and counted using a Beckman LS7000 scintillation counter."}, "Y-1 tumor cell line": {"test_system": "Y-1 tumor cell line", "experiment": "ACTH stimulation of steroidogenesis in the Y-1 tumor cell line", "assay_type": "cell-based", "settings": "unpublished studies"}, "[6]": {"test_system": "Ca++/calmodulin-dependent protein kinase", "experiment": "Phosphorylation of the 20K protein in platelets", "assay_type": "cell-based", "settings": "concentrations which completely abolished phosphorylation of the 40K protein"}, "[7]": {"settings": "oxidative burst, PMA activation, read-out: Concentration required for 50% inhibition"}},
  "note": "Where two headings read alike, the source gives them in different places.",
  "data": [
    {"smiles": "CCCCCCCCCCCCCCC[C@@H](O)[C@@H](N)CO", "note": "(relative stereo) [Sphinganine, erythro-dihydrosphingosine]", "values": [
      {"measurement": "% Adherence", "setting": "HL-60 cells; 8 nM PMA + 1 μM sphinganine, 24 h", "value": 26, "unit": "%"},
      {"measurement": "% Adherence", "setting": "HL-60 cells; 8 nM PMA + 1 μM sphinganine, 24 h, listed as Sa", "value": "25.5 ± 7.7", "unit": "%"},
      {"measurement": "Adherence", "setting": "HL-60 cells; 8 nM PMA + 2.5 μM sphinganine", "value": "17.6±6.4", "unit": "%"},
      {"measurement": "Adherence", "setting": "HL-60 cells; 8 nM PMA + 5 μM sphinganine", "value": "15.0±2.1", "unit": "%"},
      {"measurement": "number of adherent cells", "setting": "HL-60 cells; 8 nM PMA plus 1 μM sphinganine, 24 h", "value": "0.51 ×10^5"},
      {"measurement": "Adherent cells (%)", "setting": "HL-60 cells; 8 nM PMA, 1 μM sphinganine", "value": 85, "unit": "%"},
      {"measurement": "Adherent cells (%)", "setting": "HL-60 cells; 8 nM PMA, 2.5 μM sphinganine", "value": 74, "unit": "%"},
      {"measurement": "Adherent cells (%)", "setting": "HL-60 cells; 8 nM PMA, 5 μM sphinganine", "value": 70, "unit": "%"},
      {"measurement": "% Adherence", "setting": "HL-60 cells; 1 μM sphinganine, no PMA, 24 h", "value": "3.7 ± 0.7", "unit": "%"},
      {"measurement": "IC50", "setting": "HL-60 cells; HL-60, 8 nM PMA, read-out: 50% inhibition of PMA-induced attachment", "value": 3, "unit": "µM"},
      {"measurement": "Adherent cells (%)", "setting": "HL-60 cells; No PMA, 1 μM sphinganine", "value": 9, "unit": "%"},
      {"measurement": "Adherent cells (%)", "setting": "HL-60 cells; No PMA, 2.5 μM sphinganine", "value": 11, "unit": "%"},
      {"measurement": "Adherent cells (%)", "setting": "HL-60 cells; No PMA, 5 μM sphinganine", "value": 6, "unit": "%"},
      {"measurement": "IC50", "setting": "[1]", "value": "~15", "unit": "µM"},
      {"measurement": "inhibition of protein kinase C (specificity)", "setting": "protein kinase C", "value": "inhibitors"},
      {"measurement": "PMA-induced oxygen consumption after washing out sphinganine", "setting": "human neutrophils [2]; 40 μM sphinganine 5-10 min, then washed twice with 50 μM fatty acid-free BSA", "value": 3.7, "unit": "nmols/min/10^6 cells"},
      {"measurement": "RATE of oxygen consumption, SPHINGANINE", "setting": "human neutrophils [2]; 50 μM sphinganine 3 min before Arachidonate (83 μM)", "value": "0.2 nmols O2 consumed/min/10^6 cells"},
      {"measurement": "RATE of oxygen consumption, SPHINGANINE", "setting": "human neutrophils [2]; 50 μM sphinganine 3 min before Dioctanoyl Glycerol (100 μM)", "value": "0.3 nmols O2 consumed/min/10^6 cells"},
      {"measurement": "RATE of oxygen consumption, SPHINGANINE", "setting": "human neutrophils [2]; 50 μM sphinganine 3 min before FMLP (0.5 μM) + Cytochalasin B (5 μg/ml)", "value": "0.3 nmols O2 consumed/min/10^6 cells"},
      {"measurement": "RATE of oxygen consumption, SPHINGANINE", "setting": "human neutrophils [2]; 50 μM sphinganine 3 min before Opsonized zymosan (30 μg/ml)", "value": "0.3 nmols O2 consumed/min/10^6 cells"},
      {"measurement": "RATE of oxygen consumption, SPHINGANINE", "setting": "human neutrophils [2]; 50 μM sphinganine 3 min before Phorbol Myristate Acetate (1 μM)", "value": "0.2 nmols O2 consumed/min/10^6 cells"},
      {"measurement": "IC50", "setting": "human neutrophils [2]; activator PMA, read-out: half maximal inhibition of oxygen consumption", "value": 6.7, "unit": "µM"},
      {"measurement": "IC50", "setting": "human neutrophils [2]; activator dioctanoylglycerol, read-out: half maximal inhibition of oxygen consumption", "value": 7.4, "unit": "µM"},
      {"measurement": "IC50", "setting": "human neutrophils [2]; activator opsonized zymosan, read-out: half maximal inhibition of oxygen consumption", "value": 5.6, "unit": "µM"},
      {"measurement": "IC50", "setting": "human neutrophils [2]; approximately 7.5×10^6 cells/ml, read-out: concentration for 50% inhibition, oxygen consumption assay", "value": "6 to 8", "unit": "µM"},
      {"measurement": "IC50", "setting": "human neutrophils [2]; [7]", "value": 7, "unit": "µM"},
      {"measurement": "activation of the oxidative burst by A23187", "setting": "human neutrophils [2]; preliminary studies", "value": "blocked"},
      {"measurement": "viability at 50 µM", "setting": "[3]; read-out: cellular LDH retained", "value": "> 96", "unit": "%"},
      {"measurement": "viability at 50 µM", "setting": "[3]; read-out: viability by Trypan Blue exclusion", "value": "> 95", "unit": "%"},
      {"measurement": "ingested latex beads per cell", "setting": "human neutrophils [4]", "value": "7.2±0.8", "unit": "beads/cell"},
      {"measurement": "[32P]-phosphate incorporation into TCA-precipitable material", "setting": "human neutrophils [5]; PMA (1 μM) plus Sa (25 μM)", "value": 2845, "unit": "COUNTS PER MINUTE"},
      {"measurement": "[32P]-phosphate incorporation into TCA-precipitable material", "setting": "human neutrophils [5]; Sa (25 μM)", "value": 2506, "unit": "COUNTS PER MINUTE"},
      {"measurement": "effect on the ACTH-stimulated steroidogenic rate", "setting": "Y-1 tumor cell line", "value": "did not affect"},
      {"measurement": "inhibition of phosphorylation of the 20K protein in platelets", "setting": "[6]", "value": "lack of inhibition"}
    ]},
    {"smiles": "CCCCCCCCCCCCC/C=C/[C@@H](O)[C@@H](N)CO", "note": "[sphingosine]", "values": [
      {"measurement": "IC50", "setting": "HL-60 cells; HL-60, read-out: 50% inhibition of PMA-induced attachment", "value": 1, "unit": "µM"},
      {"measurement": "Hill number of the PS dependence of protein kinase C activation", "setting": "protein kinase C; 2 mol % sphingosine", "value": 6.9},
      {"measurement": "Hill number of the PS dependence of protein kinase C activation", "setting": "protein kinase C; 4 mol % sphingosine", "value": 8.8},
      {"measurement": "type of inhibition with respect to diC18:1", "setting": "protein kinase C; 6 mol % PS, 50 μM Ca2+, double reciprocal plots", "value": "competitive"},
      {"measurement": "IC50", "setting": "protein kinase C; Triton X-100 mixed micelles, 6 mol % PS, 2 mol % diC18:1, read-out: 50% inhibition of protein kinase C activity", "value": 100, "unit": "µM"},
      {"measurement": "type of inhibition with respect to phorbol dibutyrate", "setting": "protein kinase C; double reciprocal plots", "value": "competitive inhibition"},
      {"measurement": "type of inhibition with respect to Ca2+", "setting": "protein kinase C; fixed PS and diC18:1, 3 and 4 mol % sphingosine", "value": "appeared competitive"},
      {"measurement": "inhibition of protein kinase C (specificity)", "setting": "protein kinase C", "value": "potent and reversible inhibitor"},
      {"measurement": "IC50", "setting": "human neutrophils [2]; [7]", "value": 9, "unit": "µM"}
    ]}
  ]
}
